How the values were obtained:
ACO1, Ma01_g11540 = test: Trait co-editing in selected embryos (PBE #3); type: cell-based, banana; conditions: G418 selection
Procedure: (§1) We transformed ECS as described previously in Example 6, using the new co-editing plasmids detailed in Table 11 above. Embryos were regenerated as detailed previously, either on media without selection, with 25 mg/L G418, 25 μg/L CSF or 50 μg/L CSF. Initial genotyping of all plasmids tested:
(§2) • All with CsVMV-rAPOBEC1 CBE (rAPOBEC+nCas9 (D10A) PBE from Zong et al. 2017*) and nosP-NptII • pMol_0925 (sgGFP-pNOS::Kan::tOCS-pCsVMV::nCas9PBE1::tg7-Dummy-pTaU6::sg1GFP_58-pTaU6::sg2GFP_59) • pMol_0934 (sgGFP, sgALS1-pNOS::Kan::tOCS-pCsVMV::nCas9PBE1::tg7-taU6::MaALS1sg2_2021-pTaU6::sg1GFP_58-pTaU6::sg2GFP_59) • pMol_0935 (sgGFP, sgALS2-pNOS::Kan::tOCS-pCsVMV::nCas9PBE1::tg7-taU6::MaALS2sg2_2023-pTaU6::sg1GFP_58-pTaU6::sg2GFP_59) • pMol_0926 (sgPPO2, sgALS1-pNOS::Kan::tOCS-pCsVMV::nCas9PBE1::tg7-taU6::MaALS1sg2_2021-pTaU6::sg1PPO2_2961-pTaU6::sg2PPO2_2962-pTaU6::sg3PPO2_2963) • pMol_0927 (sgPPO2, sgALS1-pNOS::Kan::tOCS-pCsVMV::nCas9PBE1::tg7-taU6::MaALS1sg2_2021-pTaU6::sg3PPO2_2963-pTaU6::sg4PPO2_2964) • pMol_0928 (sgACO1, sgALS1-pNOS::Kan::tOCS-pCsVMV::nCas9PBE1::tg7-taU6::MaALS1sg2_2021-pTaU6::sg1ACO1_2965-pTaU6::sg2ACO1_2966-pTaU6::sg3ACO1_2967) • pMol_0929 (sgPPO2, sgALS2-pNOS::Kan::tOCS-pCsVMV::nCas9PBE1::tg7-taU6::MaALS2sg2_2023-pTaU6::sg1PPO2_2961-pTaU6::sg2PPO2_2962-pTaU6::sg3PPO2_2963) • pMol_0930 (sgPPO2, sgALS2-pNOS::Kan::tOCS-pCsVMV::nCas9PBE1::tg7-taU6::MaALS2sg2_2023-pTaU6::sg3PPO2_2963-pTaU6::sg4PPO2_2964) • pMol_0931 (sgACO1, sgALS2-pNOS::Kan::tOCS-pCsVMV::nCas9PBE1::tg7-taU6::MaALS2sg2_2023-pTaU6::sg1ACO1_2965-pTaU6::sg2ACO1_2966-pTaU6::sg3ACO1_2967) ECS were left to ‘recover’ after transformation for 1 week in CS+cefo 300 mg/L. We regenerated embryos in 4 different conditions: • 1. No selection • 2. Stable G418 selection (in EDM only 2-3 months) from PBE #3 only (PBE #1/2 plasmids only have mCherry, not NptII) • 3. 25 μg/L chlorsulfuron (in EDM only 2-3 months) • 4. 50 μg/L chlorsulfuron (in EDM only 2-3 months)
(§3) gDNA from embryos and plantlets was extracted and qPCR was used to test for the presence of integrated tDNA in the plant genome. Three independent qPCRs were run on each sample with different sets of primers (listed below) spanning the tDNA, ranging from the left to right border. An additional qPCR was run on an endogenous banana gene (actin) for normalisation of Ct values. All qPCRs were run on the LightCycler® 96 System (Roche) using PowerUp™ SYBR® Green Master Mix (Thermo Fisher Scientific™).
(§4) For edit validation, amplicons for each target gene (als1, als2, ppo2, aco1) were made using Q5® High-Fidelity 2× Master Mix (New England Biolabs, NEB) using reaction settings listed below. PCR products were purified using Monarch® PCR & DNA Cleanup Kit (NEB) according to manufacturer's specifications. The amplicons were after validated by Sanger sequencing.

PPO2, Ma07_g03540 = test: Trait co-editing in selected embryos (PBE #3); type: cell-based, banana; conditions: G418 selection
Procedure: as §1, §2, §3, §4

[1] = system: banana embryos or leaf material; test: Comparison of selection using ALS inhibitor, G418 or hygromycin (genotyping of embryos or leaf material); type: cell-based; conditions: embryos
Text: In every case, regenerated material was transformed with constructs containing T-DNA that would generate resistance in positive transformants.

Structure (SMILES): CN[C@@H]1[C@@H](O)[C@@H](O[C@@H]2[C@@H](O)[C@H](O[C@H]3O[C@H]([C@@H](C)O)[C@@H](O)[C@H](O)[C@H]3N)[C@@H](N)C[C@H]2N)OC[C@]1(C)O [Plasmid G418]
- Percentage edited ACO1 embryos (ACO1, Ma01_g11540): 33.33
- ACO1 edited embryos total (ACO1, Ma01_g11540; 6 embryos tested): 2
- Percentage edited PPO2 embryos (PPO2, Ma07_g03540): 31.25
- PPO2 edited embryos total (PPO2, Ma07_g03540; 16 embryos tested): 5
- Editing frequency ([1]; stable selection): 17/28 = 60.7%
- Transgenic frequency ([1]; stable selection): 18/28 = 64.3%
- Editing frequency ([1]; transient selection): 35/867 = 4.0%
- Non-transgenic edited ([1]; transient selection): 0/774 = 0%
- Transgenic frequency ([1]; transient selection): 95/943 = 10.1%

Source: US20250034586A1, “METHOD FOR EDITING BANANA GENES” (Tropic Biosciences UK Limited, priority 2021, published 2025)
